Tests used:
Assay type in all cases: in vivo, human
[1] = system: Protein C inhibitor (PCI) transcripts; experiment: Gene expression profiling (Affymetrix chips) of muscle from diabetics before/after 3 months troglitazone: PCI; settings: basal muscle sample
Text: The molecular mechanism by which thiazolidinediones (TZDs) cause an increase in peripheral insulin sensitivity was studied. Genes in muscle or fat whose expression is altered by TZDs may lie on a pathway leading from TZD treatment to increased insulin sensitivity. Modulators of such genes can elicit the same effect as TZD treatment. Moreover, such modulators can lack some of the side effects of TZD. The majority of glucose disposal occurs in muscle. For this reason, gene expression profiling in human muscle from diabetics treated with troglitazone was used to identify genes important for TZD action and therefore treatment of diabetes and insulin resistance. Gene expression profiling was performed on tissue samples (muscle) obtained from lean obese and diabetic individuals. […] Gene expression profile differences were calculated as follows. […] The raw data was analyzed by a statistical test to remove ‘outliers’. The mean ‘average difference score’ was then calculated from the average difference scores for all individuals in a particular treatment group. Genes were determined to be changed in three different comparisons by calculating the Students t test statistic between two conditions and selecting those with t less than or equal to 0.05. Fold change was determined as the ratio of mean average difference score in condition 2 to the mean average difference score in condition 1. […]

[2] = system: Protein C inhibitor (PCI) expression; experiment: Real time PCR of PCI expression in muscle, pre- vs post-troglitazone-treated patients; settings: mean diabetic post-Tro/mean diabetic pre-Tro expression
Experimental: The gene expression changes observed in the human muscle samples derived from the various comparison populations analyzed in the profiling analysis described above were further confirmed by the use of real-time quantitative PCR. A combination of specific PCR primers and a Taqman probe were designed to detect and quantify expression levels for each gene. Relative gene expression levels were determined in this manner in each patient and the mean expression levels in the comparison populations were then calculated. PCI expression was also evaluated by real time PCR in lean vs. obese individuals and in pre-troglitazone-treated vs post-troglitazone-treated patients.

[3] = system: MAST205/MAST205b transcripts; experiment: Gene expression profiling (Affymetrix chips) of muscle from diabetics before/after 3 months troglitazone: MAST205/MAST205b; settings: basal muscle sample
Experimental: Gene expression profiling was performed on tissue samples (muscle) obtained from lean obese and diabetic individuals. Two studies were performed. In the first study, basal samples were isolated from all individuals at the beginning of a 5 hour hyperinsulinemic euglycemic clamp. Clamp samples were isolated at the end of this procedure. Similar basal and clamp samples were taken 3 months later after all patients had taken the insulin sensitizing drug troglitazone (tro). Gene expression profile differences were calculated as follows. The expression level of a particular gene is indicated by its ‘average difference score’. The raw data was analyzed by a statistical test to remove ‘outliers’. The mean ‘average difference score’ was then calculated from the average difference scores for all individuals in a particular treatment group. Genes were determined to be changed in three different comparisons by calculating the Students t test statistic between two conditions and selecting those with t less than or equal to 0.05. Fold change was determined as the ratio of mean average difference score in condition 2 to the mean average difference score in condition 1. The first comparison is basal leans (condition 1) versus basal obese (condition 2). The second comparison is basal leans (condition 1) versus basal diabetics (condition). […]

MAST205b expression = experiment: Real-time PCR (Taqman) specific for MAST205b in muscle before/after 3 months troglitazone
Experimental: (§1) The gene expression changes observed in the human muscle samples derived from the various comparison populations analyzed in the profiling analysis described above were further confirmed by the use of real-time quantitative PCR. A combination of specific PCR primers and a Taqman probe were designed to detect and quantify expression levels for each gene. Relative gene expression levels were determined in this manner in each patient and the mean expression levels in the comparison populations were then calculated. […] PCR primers and Taqman Probe were designed to detect specifically the expression of MAST205b. The sequences of the primers was as follows: […]

MAST205 expression = experiment: Real-time PCR (Taqman) specific for MAST205 in muscle before/after 3 months troglitazone
Experimental: as §1, with “MAST205.” for “MAST205b.”

[4] = 3 months troglitazone, gene profiling
[5] = muscle, lean individuals after 3 months troglitazone, relative to Lean Pre-Trog = 100%
[6] = ratio of relative expression Diabetic Post-Trog to Diabetic Pre-Trog

Cc1c(C)c2c(c(C)c1O)CCC(C)(COc1ccc(CC3SC(=O)NC3=O)cc1)O2 (centres unmarked) [troglitazone]
Fold Change (diabetic post tro/diabetic pre tro), Protein C inhibitor [1, 4]: 0.51 | Mean Expr, Diabetic Post-Trog (Protein C inhibitor) ([1]; diabetics after 3 months of Troglitazone treatment, pre-Trog mean 1422): 722 | Expression Fold change, Diabetics + Tro/Diabetics − Tro (PCI) [2]: 0.33 | Fold Change, Diabetic Post-Trog vs Pre-Trog (MAST205) [3, 4]: 0.74 | Mean Expr, Diabetic Post-Trog (MAST205) ([3]; diabetics after 3 months troglitazone, pre-Trog mean 1234): 919 | Relative Exp (%), Diabetic Post-Tro (MAST205b) (MAST205b expression; muscle, diabetics after 3 months troglitazone, relative to Lean Pre-Trog = 100%, Diabetic Pre-Trog 197): 111% | Relative Exp (%), Lean Post-Trog (MAST205b) (MAST205b expression; [5]): 88% | Fold Change (D+/D−) (MAST205b) (MAST205b expression; [6]): 0.56 | Relative Exp (%), Diabetic Post-Tro (MAST205) (MAST205 expression; muscle, diabetics after 3 months troglitazone, relative to Lean Pre-Trog = 100%, Diabetic Pre-Trog 242): 66% | Relative Exp (%), Lean Post-Trog (MAST205) (MAST205 expression; [5]): 98% | Fold Change (D+/D−) (MAST205) (MAST205 expression; [6]): 0.27

Reference: US20060234292A1, “Methods of diagnosing and treating diabetes and insulin resistance” (priority 2002, published 2006)
